Measured values: patent US20250017927A1, “PHARMACEUTICAL COMPOSITION AND USE THEREOF” (SHANGHAI ALLIST PHARMACEUTICALS CO., LTD., priority 2021, published 2025)

Experiments:
Ba/F3 EGFR G724S = assay: Proliferation inhibition, CellTiter Glo, Ba/F3 EGFR G724S; assay type: cell-based, mouse; conditions: for IC50: Mus musculus, Ba/F3 EGFR G724S stably transfected cells, 72 hours
Excerpt: (§1) The proliferation inhibition activity of the compound (furmonertinib mesilate) on four cells of Ba/F3 EGFR G719S, Ba/F3 EGFR G724S, Ba/F3 EGFR S768I, and Ba/F3 EGFR L861Q stably expressing EGFR rare mutation proteins, one cell of Ba/F3 EGFR G719S/T263P stably expressing EGFR double mutation proteins, and three cells of Ba/F3 ERBB2 A775_G776insYVMA, Ba/F3 ERBB2 V777_G778insGC, and Ba/F3 ERBB2 P780_Y781insGSP stably expressing different ERBB2 exon 20 insertion mutation proteins in mouse pro-B cells Ba/F3 in vitro was determined by the CellTiter Glo method.
(§2) Cell source: Ba/F3 EGFR G719S, Ba/F3 EGFR G724S, Ba/F3 EGFR S768I, Ba/F3 EGFR L861Q, Ba/F3 EGFR G719S/T263P, Ba/F3 ERBB2 A775_G776insYVMA, Ba/F3 ERBB2 V777_G778insGC, Ba/F3 ERBB2 P780_Y781insGSP cells were provided by KYinno Biotechnology (Beijing) Co., Ltd.
(§3) Ba/F3 EGFR G719S, Ba/F3 EGFR G724S, Ba/F3 EGFR S768I, Ba/F3 EGFR L861Q, Ba/F3 EGFR G719S/T263P, Ba/F3 ERBB2 A775_G776insYVMA, Ba/F3 ERBB2 V777_G778insGC, Ba/F3 ERBB2 P780_Y781insGSP cells were cultivated in RPMI1640 complete culture medium containing 10% fetal bovine serum. […]
(§4) The CellTiter-Glo reagent (a luciferase ATP bioluminescence detection reagent, commercially available from Promega) was thawed, the 96-well plates inoculated with the cells were taken out from the CO2 constant temperature incubator, and equilibrated to room temperature (about 30 minutes), 100 μL CellTiter-Glo reagent was added to each well, the cells were lyzed by shaking on an orbital shaker for 5 minutes, […] at room temperature for 20 minutes to wait for the luminescence intensity to stabilize, then the luminescence intensity (Lum) was determined with a microplate reader. The cell survival rate at each concentration of the compound was calculated.
(§5) The data were analyzed using GraphPad Prism 7.0 software, fitted with nonlinear S-curve regression to give a dose-effect curve, and IC50 values were calculated therefrom, as shown in Table 1.

[1] = test system: Ba/F3 ERBB2 A775_G776insYVMA; assay: Proliferation inhibition, CellTiter Glo, Ba/F3 ERBB2 A775_G776insYVMA; assay type: cell-based, mouse; conditions: for IC50: Mus musculus, BaF3, Ba/F3 ERBB2 A775_G776insYVMA stably transfected cells, 72 hours
Excerpt: as §1, §2, §3, §4, §5

Ba/F3 EGFR L861Q = assay: Proliferation inhibition, CellTiter Glo, Ba/F3 EGFR L861Q; assay type: cell-based, mouse; conditions: for IC50: Mus musculus, Ba/F3 EGFR L861Q stably transfected cells, 72 hours
Excerpt: as §1, §2, §3, §4, §5

Ba/F3 EGFR G719S = assay: Proliferation inhibition, CellTiter Glo, Ba/F3 EGFR G719S; assay type: cell-based, mouse; conditions: for IC50: Mus musculus, Ba/F3 EGFR G719S stably transfected cells, 72 hours
Excerpt: as §1, §2, §3, §4, §5

Ba/F3 EGFR S768I = assay: Proliferation inhibition, CellTiter Glo, Ba/F3 EGFR S768I; assay type: cell-based, mouse; conditions: for IC50: Mus musculus, Ba/F3 EGFR S768I stably transfected cells, 72 hours
Excerpt: as §1, §2, §3, §4, §5

[2] = test system: EGFR T790M positive advanced non-small cell lung cancer; conditions: oral 80 mg daily dose, patients with progressive disease after prior systematic anti-tumor therapy; cited from earlier work
[3] = test system: Ba/F3 ERBB2 V777_G778insGC; assay: Proliferation inhibition, CellTiter Glo, Ba/F3 ERBB2 V777_G778insGC; assay type: cell-based, mouse; conditions: for IC50: Mus musculus, BaF3, Ba/F3 ERBB2 V777_G778insGC stably transfected cells, 72 hours
Excerpt: as §1, §2, §3, §4, §5

[4] = test system: Ba/F3 ERBB2 A775_G776insYVMA subcutaneous xenograft; assay: Anti-tumor effect in Ba/F3 ERBB2 A775_G776insYVMA CDX tumor model; conditions: 30 mg/kg oral once per day for two weeks
Excerpt: Experimental animals: BALB/c nude mice, female, 8-9 weeks (mouse week-old when tumor cells were inoculated), and weighing 13.7-17.7 g, purchased from the Shanghai branch of Beijing Vital River Laboratory Animal Technology Co., Ltd.
Animal modeling and random grouping: Ba/F3 ERBB2 A775_G776insYVMA cells were cultivated, amplified to two T175 cm^2 culture flasks, cells were collected, and resuspended and counted in serum-free medium DMEM with the addition of a matrix gel at 1:1, and inoculated at 2×10^6 cells/0.1 mL in Balb/c nude mouse right front scapular subcutaneous. When the average tumor volume was about 160 mm^3, the animals were randomly grouped into three experiment groups according to the tumor size. Each group contained 6 mice. The grouping day was defined as Day 0, i.e., DO.
The experimental scheme: BALB/c nude mice were subcutaneously inoculated with Ba/F3 ERBB2 A775_G776insYVMA cells, and a cell line heterograft tumor model was established. The experiment was divided into 30 mg/kg group of AZD9291, 30 mg/kg group of furmonertinib mesilate and a vehicle control group, wherein each group contained 6 animals, orally administered with the administration volume of 10 uL/g, and the vehicle control group was administered with the same amount of vehicle, the administration was carried out once per day and lasted for two weeks. During the whole experiment, the body weight and the tumor sizes of the mice were measured twice each week, and whether or not the presence of toxic reactions was observed.
Tumor Volume (TV) was calculated by: TV=½×a×b×b, where a and b represented the length and the width of tumor, respectively.

[5] = test system: Ba/F3 ERBB2 P780_Y781insGSP; assay: Proliferation inhibition, CellTiter Glo, Ba/F3 ERBB2 P780_Y781insGSP; assay type: cell-based, mouse; conditions: for IC50: Mus musculus, BaF3, Ba/F3 ERBB2 P780_Y781insGSP stably transfected cells, 72 hours
Excerpt: as §1, §2, §3, §4, §5

[6] = test system: Ba/F3 ERBB2 V777_G778insGC xenograft; assay: Anti-tumor effect in Ba/F3 ERBB2 V777_G778insGC (KC-1410) cell xenograft model; assay type: in vivo; conditions: for anti-tumor activity: B-NDG mice
Excerpt: This study was used for evaluate the anti-tumor efficacy of three compounds alone in the female (B-NDG) immune deficiency mice bearing tumors of Ba/F3 ERBB2 V777_G778insGC engineered cells.
Experimental animals: B-NDG mice, female, 6-8 weeks, and weighing 18-20 g.
Animal modeling and random grouping: Ba/F3 ERBB2 V777_G778insGC cells were cultivated, cells were collected, and re-suspended and counted in serum-free medium, the re-suspended cells with the addition of a matrigel at 1:1 were subcutaneous inoculated at 1×10^6 cells/0.1 mL in B-NDG mice. When the average tumor volume was about 80-120 mm^3, the animals were randomly grouped into four experiment groups according to the tumor size. Each group contained 12 mice.
The experimental scheme: B-NDG mice were subcutaneously inoculated with Ba/F3 ERBB2 V777_G778insGC cells to establish a cell-line-derived xenograft model.
The curves for the tumor volume change of four experimental groups were shown in FIG. 3, and the curves for the body weight change of four experimental groups were shown in FIG. 4.

Ba/F3 EGFR G719S/T263P = assay: Proliferation inhibition, CellTiter Glo, Ba/F3 EGFR G719S/T263P; assay type: cell-based, mouse; conditions: for IC50: Mus musculus, Ba/F3 EGFR G719S/T263P stably transfected cells, 72 hours
Excerpt: as §1, §2, §3, §4, §5

[7] = orally once per day, 20 mg-240 mg; cited from earlier work

## C=CC(=O)Nc1cc(Nc2nccc(-c3cn(C)c4ccccc34)n2)c(OCC(F)(F)F)nc1N(C)CCN(C)C [furmonertinib mesilate, N-{2-{[2-(dimethylamino)ethyl](methyl)amino}-6-(2,2,2-trifluoroethoxy)-5-{[4-(1-methyl-1H-indol-3-yl)pyrimidin-2-yl]amino}pyridin-3-yl}acrylamide]
Ba/F3 EGFR G724S; Ba/F3 EGFR G724S, result in words
  proliferation inhibition activity: good proliferation inhibition activity
Ba/F3 EGFR G724S
  IC50: 35 nM
[1]; Ba/F3 ERBB2 A775_G776insYVMA, result in words
  proliferation inhibition activity: good proliferation inhibition activity
[1]
  IC50: 118 nM
Ba/F3 EGFR L861Q; Ba/F3 EGFR L861Q, result in words
  proliferation inhibition activity: good proliferation inhibition activity
Ba/F3 EGFR L861Q
  IC50: 13 nM
Ba/F3 EGFR G719S; Ba/F3 EGFR G719S, result in words
  proliferation inhibition activity: good proliferation inhibition activity
Ba/F3 EGFR G719S
  IC50: 19 nM
Ba/F3 EGFR S768I; Ba/F3 EGFR S768I, result in words
  proliferation inhibition activity: good proliferation inhibition activity
Ba/F3 EGFR S768I
  IC50: 33 nM
[2]
  anti-tumor effect: relatively good anti-tumor effect
[3]; Ba/F3 ERBB2 V777_G778insGC, result in words
  proliferation inhibition activity: good proliferation inhibition activity
[3]
  IC50: 25 nM
[4]
  effect on the body weight of nude mice: less effect on the body weight
  safety: better safety
[4]; BALB/c female nude mice
  anti-tumor effect: good anti-tumor effect
[5]; Ba/F3 ERBB2 P780_Y781insGSP, result in words
  proliferation inhibition activity: good proliferation inhibition activity
[5]
  IC50: 33 nM
[6]; 15 mg/kg oral once per day for two weeks
  anti-tumor activity: moderate anti-tumor activity
[6]; 30 mg/kg oral once per day for two weeks
  anti-tumor activity: extremely significant anti-tumor activity
[6]; 50 mg/kg oral once per day for two weeks
  anti-tumor activity: extremely significant anti-tumor activity
[6]; 15, 30 and 50 mg/kg groups
  effect on the body weight of mice: little effect on the body weight
  safety: good safety
Ba/F3 EGFR G719S/T263P; Ba/F3 EGFR G719S/T263P, result in words
  proliferation inhibition activity: good proliferation inhibition activity
Ba/F3 EGFR G719S/T263P
  IC50: 37 nM
[7]
  adverse events of subjects: mild or moderate
  dose-limiting toxicity: does not occur
  dose-related toxic reaction: does not occur
  tolerance and safety: good

## C=CC(=O)Nc1cc(Nc2nccc(-c3cn(C)c4ccccc34)n2)c(OC)cc1N(C)CCN(C)C [AZD9291, reference compound]
Ba/F3 EGFR G724S
  IC50: 139 nM
[1]
  IC50: 489 nM
Ba/F3 EGFR L861Q
  IC50: 41 nM
Ba/F3 EGFR G719S
  IC50: 68 nM
Ba/F3 EGFR S768I
  IC50: 137 nM
[3]
  IC50: 77 nM
[5]
  IC50: 96 nM
Ba/F3 EGFR G719S/T263P
  IC50: 191 nM
